Experimental data from patent publication US20220125051A1, “PRE-HARVEST DESICCATION METHOD” (SYNGENTA CROP PROTECTION AG, priority 2019, published 2022).
Read-outs that look alike come from different tables or passages of the source.

What was measured:
Experiment in all cases: Post-emergence efficacy, Method A
Type in all cases: in vivo
[1] = system: Amaranthus palmeri (AMAPA); conditions: evaluated after 13 days; for pest or weed control at 500 g/ha: Amaranthus palmeri, post-emergence, 312 h
In short: (§1)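 Sow in standard soil; grow 14 d under glasshouse control (24/16 °C, 14 h light, 65% humidity). Spray post-emergence with compound formulated in acetone/IF50, diluted in Empicol ESC70 (0.25% or 1%) + 1% ammonium sulphate. Return to glasshouse, water twice daily, score at 13 d on a 0–100 damage scale.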

[2] = system: Chenopodium album (CHEAL); conditions: evaluated after 13 days; for pest or weed control at 500 g/ha: Chenopodium album, post-emergence, 312 h
In short: as §1

[3] = system: Digitaria sanguinalis (DIGSA); conditions: evaluated after 13 days; for pest or weed control at 500 g/ha: Digitaria sanguinalis, post-emergence, 312 h
In short: as §1

[4] = system: Echinochloa crus-galli (ECHCG); conditions: evaluated after 13 days; for pest or weed control at 500 g/ha: Echinochloa crus-galli, post-emergence, 312 h
In short: as §1

[5] = system: Eleusine indica (ELEIN); conditions: evaluated after 13 days; for pest or weed control at 500 g/ha: Eleusine indica, post-emergence, 312 h
In short: as §1

[6] = system: Euphorbia heterophylla (EPHHL); conditions: evaluated after 13 days; for pest or weed control at 500 g/ha: Euphorbia heterophylla, post-emergence, 312 h
In short: as §1

[7] = system: Ipomoea hederacea (IPOHE); conditions: evaluated after 13 days; for pest or weed control at 500 g/ha: Ipomoea hederacea, post-emergence, 312 h
In short: as §1

[8] = system: Lolium perenne (LOLPE); conditions: evaluated after 13 days; for pest or weed control at 500 g/ha: Lolium perenne, post-emergence, 312 h
In short: as §1

[9] = system: Setaria faberi (SETFA); conditions: evaluated after 13 days; for pest or weed control at 500 g/ha: Setaria faberi, post-emergence, 312 h
In short: as §1

[10] = Application Rate 500 g/Ha, Method A, read-out: Control of weed species after post-emergence application, AMAPA (100=total damage to plant; 0=no damage to plant)
[11] = Application Rate 500 g/Ha, Method A, read-out: Control of weed species after post-emergence application, CHEAL (100=total damage to plant; 0=no damage to plant)
[12] = Application Rate 500 g/Ha, Method A, read-out: Control of weed species after post-emergence application, DIGSA (100=total damage to plant; 0=no damage to plant)
[13] = Application Rate 500 g/Ha, Method A, read-out: Control of weed species after post-emergence application, ECHCG (100=total damage to plant; 0=no damage to plant)
[14] = Application Rate 500 g/Ha, Method A, read-out: Control of weed species after post-emergence application, ELEIN (100=total damage to plant; 0=no damage to plant)
[15] = Application Rate 500 g/Ha, Method A, read-out: Control of weed species after post-emergence application, EPHHL (100=total damage to plant; 0=no damage to plant)
[16] = Application Rate 500 g/Ha, Method A, read-out: Control of weed species after post-emergence application, IPOHE (100=total damage to plant; 0=no damage to plant)
[17] = Application Rate 500 g/Ha, Method A, read-out: Control of weed species after post-emergence application, LOLPE (100=total damage to plant; 0=no damage to plant)
[18] = Application Rate 500 g/Ha, Method A, read-out: Control of weed species after post-emergence application, SETFA (100=total damage to plant; 0=no damage to plant)
[19] = Application rate 500 g/Ha, 100=total damage to plant, 0=no damage to plant, read-out: Control of weed species after post-emergence application, AMAPA
[20] = Application rate 500 g/Ha, 100=total damage to plant, 0=no damage to plant, read-out: Control of weed species after post-emergence application, CHEAL
[21] = Application rate 500 g/Ha, 100=total damage to plant, 0=no damage to plant, read-out: Control of weed species after post-emergence application, DIGSA
[22] = Application rate 500 g/Ha, 100=total damage to plant, 0=no damage to plant, read-out: Control of weed species after post-emergence application, ECHCG
[23] = Application rate 500 g/Ha, 100=total damage to plant, 0=no damage to plant, read-out: Control of weed species after post-emergence application, ELEIN
[24] = Application rate 500 g/Ha, 100=total damage to plant, 0=no damage to plant, read-out: Control of weed species after post-emergence application, EPHHL
[25] = Application rate 500 g/Ha, 100=total damage to plant, 0=no damage to plant, read-out: Control of weed species after post-emergence application, IPOHE
[26] = Application rate 500 g/Ha, 100=total damage to plant, 0=no damage to plant, read-out: Control of weed species after post-emergence application, LOLPE
[27] = Application rate 500 g/Ha, 100=total damage to plant, 0=no damage to plant, read-out: Control of weed species after post-emergence application, SETFA
[28] = Application Rate 500 g/Ha, Method A

| Compound | pest or weed control at 500 g/ha [1, 10] [%] | pest or weed control at 500 g/ha [2, 11] [%] | pest or weed control at 500 g/ha [3, 12] [%] | pest or weed control at 500 g/ha [4, 13] [%] | pest or weed control at 500 g/ha [5, 14] [%] | pest or weed control at 500 g/ha [6, 15] [%] | pest or weed control at 500 g/ha [7, 16] [%] | pest or weed control at 500 g/ha [8, 17] [%] | pest or weed control at 500 g/ha [9, 18] [%] | pest or weed control at 500 g/ha [1, 19] [%] | pest or weed control at 500 g/ha [2, 20] [%] | pest or weed control at 500 g/ha [3, 21] [%] | pest or weed control at 500 g/ha [4, 22] [%] | pest or weed control at 500 g/ha [5, 23] [%] | pest or weed control at 500 g/ha [6, 24] [%] | pest or weed control at 500 g/ha [7, 25] [%] | pest or weed control at 500 g/ha [8, 26] [%] | pest or weed control at 500 g/ha [9, 27] [%] | further results |
| --- | --- | --- | --- | --- | --- | --- | --- | --- | --- | --- | --- | --- | --- | --- | --- | --- | --- | --- | --- |
| Nc1nccc(-c2cc[n+](CCC(=O)O)nc2)n1 [Compound A160] | 100 | 100 | 70 | 70 | 80 | 90 | 70 | 70 | 90 | – | – | – | – | – | – | – | – | – | – |
| O=C(O)CC[n+]1ccc(-c2ncccc2Cl)cn1 [Compound A149] | – | – | – | – | – | – | – | – | – | 30 | 40 | 50 | 50 | 60 | 30 | 10 | 40 | 40 | – |
| O=C(O)CC[n+]1ccc(-c2cc(C(F)(F)F)ncn2)cn1 [Compound A119] | – | – | – | – | – | – | – | – | – | 100 | 100 | 40 | 30 | 30 | 70 | 50 | 30 | 40 | – |
| CCOP(=O)(CC[n+]1ccc(-c2ncccn2)cn1)OCC [Compound A124, 1-(2-diethoxyphosphorylethyl)-4-pyrimidin-2-yl-pyridazin-1-ium] | – | – | – | – | – | – | – | – | – | 0 | 0 | 10 | 0 | 0 | 0 | 0 | 0 | 20 | – |
| Nc1cc(-c2cc[n+](CCS(=O)(=O)[O-])nc2)ncn1 [Compound A164] | 100 | 80 | 30 | 30 | 80 | 90 | 40 | 40 | 50 | – | – | – | – | – | – | – | – | – | – |
| Cc1cc(-c2ncccn2)cn[n+]1CCS(=O)(=O)[O-] [Compound A212, 2-(6-methyl-4-pyrimidin-2-yl-pyridazin-1-ium-1-yl)ethanesulfonate] | 100 | 100 | 90 | 70 | 90 | 100 | 30 | 70 | 80 | – | – | – | – | – | – | – | – | – | – |
| O=S(=O)([O-])CC[n+]1ccc(-c2ncccc2C(F)(F)F)cn1 [Compound A140] | – | – | – | – | – | – | – | – | – | 60 | 50 | 10 | 20 | 10 | 50 | 20 | 0 | 30 | – |
| O=C(O)CC[n+]1ccc(-c2ncc(F)cc2F)cn1 [Compound A144] | – | – | – | – | – | – | – | – | – | 20 | 10 | 30 | 20 | 20 | 20 | 10 | 10 | 20 | – |
| O=C(O)CC[n+]1ccc(-c2cncc(C(F)(F)F)n2)cn1 [Compound A120] | – | – | – | – | – | – | – | – | – | 90 | 70 | 40 | 40 | 30 | 50 | 10 | 20 | 40 | – |
| CNC(=O)c1ccnc(-c2cc[n+](CCC(=O)[O-])nc2)n1 [Compound A59] | – | – | – | – | – | – | – | – | – | 90 | 90 | 100 | 80 | 90 | 100 | 80 | 70 | 100 | – |
| CCOC(=O)CC[n+]1ccc(-c2ncccn2)cn1 [Compound A82] | – | – | – | – | – | – | – | – | – | 70 | 80 | 30 | 30 | 60 | 40 | 20 | 0 | 60 | – |
| O=S(=O)([N-]CC[n+]1ccc(-c2ncccn2)cn1)C(F)(F)F [Compound A225] | 100 | 90 | 60 | 30 | 90 | 100 | 70 | 30 | 30 | – | – | – | – | – | – | – | – | – | – |
| O=P(O)(O)C[n+]1ccc(-c2ccncn2)cn1 [Compound A236] | – | – | – | – | – | – | – | – | – | – | – | – | – | – | – | – | – | – | Control of weed species after post-emergence application, AMAPA (100=total damage to plant; 0=no damage to plant) [1, 28]: 90; Control of weed species after post-emergence application, CHEAL (100=total damage to plant; 0=no damage to plant) [2, 28]: 20; Control of weed species after post-emergence application, DIGSA (100=total damage to plant; 0=no damage to plant) [3, 28]: 80; Control of weed species after post-emergence application, ECHCG (100=total damage to plant; 0=no damage to plant) [4, 28]: 50; Control of weed species after post-emergence application, ELEIN (100=total damage to plant; 0=no damage to plant) [5, 28]: 10; Control of weed species after post-emergence application, EPHHL (100=total damage to plant; 0=no damage to plant) [6, 28]: 30; Control of weed species after post-emergence application, IPOHE (100=total damage to plant; 0=no damage to plant) [7, 28]: 40; Control of weed species after post-emergence application, LOLPE (100=total damage to plant; 0=no damage to plant) [8, 28]: 0; Control of weed species after post-emergence application, SETFA (100=total damage to plant; 0=no damage to plant) [9, 28]: 30 |
| O=C(O)CC[n+]1ccc(-c2ccncc2F)cn1 [Compound A157] | 100 | 100 | 70 | 80 | 90 | 80 | 60 | 30 | 80 | – | – | – | – | – | – | – | – | – | – |
